Reference: ChEMBL document CHEMBL1275281, “Synthesis, anti-inflammatory evaluation and docking studies of some new fluorinated fused quinazolines” (2010)

Columns and labels:
[1] = system: Rattus norvegicus; experiment: Antiinflammatory activity in Wistar rat assessed as inhibition of carrageenan-induced paw edema at 10 mg/kg, po administered 1 hr before carrageenan challenge and measured 2 hrs post carrageenan challenge relative to untreated control; type: functional
[2] = system: Rattus norvegicus; experiment: Antiinflammatory activity in Wistar rat assessed as inhibition of carrageenan-induced paw edema at 10 mg/kg, po administered 1 hr before carrageenan challenge and measured 4 hrs post carrageenan challenge relative to untreated control; type: functional

Row | Compound | inhibition in vivo at 10 mg/kg [1] [%] | inhibition in vivo at 10 mg/kg [2] [%]
1 | NC(=O)c1c(-c2ccccc2)cc(C(F)(F)F)c2c1N=C(c1ccco1)N1CCN=C21 | 31 | 30
2 | NC(=O)c1c(C(F)(F)F)cc(-c2ccccc2)c2c1N=C(c1ccco1)N1CCN=C21 | 29 | 28
3 | NC(=O)c1c(-c2ccccc2)cc(C(F)(F)F)c2c1N=C(c1ccc(O)cc1)N1CCN=C21 | 61 | 60
4 | NC(=O)c1c(C(F)(F)F)cc(-c2ccccc2)c2c1N=C(c1ccc(O)cc1)N1CCN=C21 | 59 | 57
5 | NC(=O)c1c(-c2ccccc2)cc(C(F)(F)F)c2c1N=C(c1cccs1)N1CCN=C21 | 25 | 24
6 | NC(=O)c1c(C(F)(F)F)cc(-c2ccccc2)c2c1N=C(c1cccs1)N1CCN=C21 | 34 | 33
7 | COc1ccc2c(c1)c(CC(=O)O)c(C)n2C(=O)c1ccc(Cl)cc1 [INDOMETHACIN] | 79 | 75
